Measurements: ChEMBL document CHEMBL4130451, “Design and Synthesis of N-Aryl Phenoxyethoxy Pyridinones as Highly Selective and CNS Penetrant mGlu3 NAMs” (ACS Med Chem Lett, 2017)
The source made the active and inactive calls. No cut-off for these calls is given here.

Columns and labels:
[1] = molecular target: Epidermal growth factor receptor (Homo sapiens) (UniProt P00533); assay: Inhibition of human EGF receptor at 10 uM relative to control
[2] = species on record: Rattus norvegicus; assay: Inhibition of rat thyroid hormone receptor at 10 uM relative to control
[3] = species on record: Rattus norvegicus; assay: Inhibition of rat kainate glutamate receptor at 10 uM relative to control
[4] = molecular target: Metabotropic glutamate receptor 7 (Rattus norvegicus) (UniProt P35400); assay: Negative allosteric modulation of rat mGlu7 receptor expressed in HEK/GIRK cells assessed as inhibition of L-AP4 induced-calcium mobilization preincubated for 2.3 mins followed by L-AP4 addition measured for 2.6 mins by Fluo-4 AM dye based fluorescence assay; type: functional, cell-based
[5] = molecular target: Metabotropic glutamate receptor 8 (Rattus norvegicus) (UniProt P70579); assay: Negative allosteric modulation of rat mGlu8 receptor expressed in HEK/GIRK cells assessed as inhibition of glutamate induced-calcium mobilization preincubated for 2.3 mins followed by glutamate addition measured for 2.6 mins by Fluo-4 AM dye based fluorescence assay; type: functional, cell-based
Chain of Metabotropic glutamate receptor 8 (Rattus norvegicus) (P70579 whole entry): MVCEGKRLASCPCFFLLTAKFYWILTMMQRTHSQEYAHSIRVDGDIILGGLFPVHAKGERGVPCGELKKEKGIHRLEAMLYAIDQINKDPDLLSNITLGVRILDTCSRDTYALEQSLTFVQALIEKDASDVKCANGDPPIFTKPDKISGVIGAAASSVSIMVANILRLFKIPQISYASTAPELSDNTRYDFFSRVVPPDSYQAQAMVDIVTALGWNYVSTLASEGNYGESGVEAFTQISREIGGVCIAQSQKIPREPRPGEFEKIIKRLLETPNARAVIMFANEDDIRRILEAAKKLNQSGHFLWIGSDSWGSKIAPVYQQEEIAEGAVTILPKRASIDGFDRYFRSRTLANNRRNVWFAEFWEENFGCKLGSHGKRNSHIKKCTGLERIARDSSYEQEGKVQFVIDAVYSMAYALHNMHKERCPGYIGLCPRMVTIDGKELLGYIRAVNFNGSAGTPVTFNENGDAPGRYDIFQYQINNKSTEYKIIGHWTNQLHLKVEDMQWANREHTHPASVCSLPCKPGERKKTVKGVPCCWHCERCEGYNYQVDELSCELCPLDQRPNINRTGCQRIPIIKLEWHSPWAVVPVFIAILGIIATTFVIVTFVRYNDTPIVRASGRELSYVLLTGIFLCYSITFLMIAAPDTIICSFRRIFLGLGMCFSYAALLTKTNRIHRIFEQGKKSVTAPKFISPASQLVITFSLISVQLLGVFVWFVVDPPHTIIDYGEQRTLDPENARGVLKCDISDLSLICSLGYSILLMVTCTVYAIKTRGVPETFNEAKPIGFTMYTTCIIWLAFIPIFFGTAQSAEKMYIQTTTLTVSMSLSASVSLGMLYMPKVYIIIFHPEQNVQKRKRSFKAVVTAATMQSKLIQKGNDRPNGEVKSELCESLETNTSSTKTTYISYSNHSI

[6] = molecular target: Endothelin-1 receptor (Homo sapiens) (UniProt P25101); assay: Inhibition of human endothelin A receptor at 10 uM relative to control
Chain of Endothelin-1 receptor (Homo sapiens) (P25101 whole entry): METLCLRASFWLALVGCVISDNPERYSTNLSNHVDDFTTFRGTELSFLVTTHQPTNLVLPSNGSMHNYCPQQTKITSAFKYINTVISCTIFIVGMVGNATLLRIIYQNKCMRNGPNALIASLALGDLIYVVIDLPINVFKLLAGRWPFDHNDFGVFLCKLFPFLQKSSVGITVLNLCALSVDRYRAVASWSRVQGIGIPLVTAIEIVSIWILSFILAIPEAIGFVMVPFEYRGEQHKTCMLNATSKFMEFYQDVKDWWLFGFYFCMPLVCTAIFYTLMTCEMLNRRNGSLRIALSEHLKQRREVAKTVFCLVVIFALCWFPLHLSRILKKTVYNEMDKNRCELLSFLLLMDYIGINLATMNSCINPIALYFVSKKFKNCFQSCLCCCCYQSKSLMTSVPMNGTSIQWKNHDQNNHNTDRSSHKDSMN

[7] = molecular target: Neuropeptide Y receptor type 2 (Homo sapiens) (UniProt P49146); assay: Inhibition of human […] Y2 receptor at 10 uM relative to control
[8] = molecular target: Sodium-dependent dopamine transporter (Homo sapiens) (UniProt Q01959); assay: Inhibition of human DAT at 10 uM relative to control
[9] = molecular target: Acetylcholine receptor subunit alpha (Homo sapiens) (UniProt P02708); assay: Inhibition of human alpha1 nAChR bungarotoxin site at 10 uM relative to control
[10] = Brain to plasma partition coefficient, Kp of the compound in Harlan CD-1 mouse at 3 mg/kg, ip by LC/MS-MS analysis; type: ADME, organism-based
[11] = molecular target: Cysteinyl leukotriene receptor 1 (Homo sapiens) (UniProt Q9Y271); assay: Inhibition of human cysteinyl cys leukotriene receptor 1 at 10 uM relative to control
[12] = molecular target: Cytochrome P450 1A2 (Homo sapiens, UniProt P05177); assay: Inhibition of CYP1A2 in human liver microsomes using phenacetin as substrate after 15 mins in presence of NADPH by LC/MS/MS analysis; type: ADME
Chain of Cytochrome P450 1A2 (P05177 whole entry): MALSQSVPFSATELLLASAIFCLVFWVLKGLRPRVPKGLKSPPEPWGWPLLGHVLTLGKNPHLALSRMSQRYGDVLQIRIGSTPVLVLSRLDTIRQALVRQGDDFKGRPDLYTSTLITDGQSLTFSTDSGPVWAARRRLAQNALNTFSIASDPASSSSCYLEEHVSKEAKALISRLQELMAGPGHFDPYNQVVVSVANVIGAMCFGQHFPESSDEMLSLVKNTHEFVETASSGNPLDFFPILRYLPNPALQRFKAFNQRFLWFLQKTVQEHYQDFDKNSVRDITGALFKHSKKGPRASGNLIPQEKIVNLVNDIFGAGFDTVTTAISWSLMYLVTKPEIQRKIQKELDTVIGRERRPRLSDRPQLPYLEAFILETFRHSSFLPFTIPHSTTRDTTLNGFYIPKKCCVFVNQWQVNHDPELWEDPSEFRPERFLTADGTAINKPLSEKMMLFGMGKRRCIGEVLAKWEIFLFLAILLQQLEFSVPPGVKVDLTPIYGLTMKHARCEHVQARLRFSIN

[13] = molecular target: Sodium-dependent serotonin transporter (Homo sapiens) (UniProt P31645); assay: Inhibition of human SERT at 10 uM relative to control
[14] = species on record: Rattus norvegicus; assay: Inhibition of rat central GABA-A receptor flunitrazepam site at 10 uM relative to control
[15] = tested on: Mus musculus; assay: Antidepressant activity in CD-1 mouse assessed as reduction in immobility time administered ip 15 mins prior to test measured for 6 mins by tail suspension test; type: functional; details: CD-1, ip, read-out: MED
[16] = molecular target: Gamma-aminobutyric acid type B receptor subunit 1 (Homo sapiens) (UniProt Q9UBS5); assay: Inhibition of human GABA-B1A receptor at 10 uM relative to control
[17] = molecular target: Delta-type opioid receptor (Homo sapiens) (UniProt P41143); assay: Inhibition of human delta 1 opioid receptor at 10 uM relative to control
[18] = molecular target: Glutamate NMDA receptor (Rattus norvegicus) (UniProt P35439+Q00959+Q00960+Q00961+Q62645+Q8VHN2+Q9R1M7); assay: Inhibition of rat glutamate NMDA receptor phencyclidine binding site at 10 uM relative to control; type: protein-complex assay
[19] = molecular target: L-type calcium channel, dihydropyridine site (Rattus norvegicus, UniProt P22002+P27732+Q02485); assay: Inhibition of rat L-type calcium channel dihydropyridine site at 10 uM relative to control; type: protein assay
[20] = molecular target: Alpha-1A adrenergic receptor (Rattus norvegicus) (UniProt P43140); assay: Inhibition of rat adrenergic alpha 1A receptor at 10 uM relative to control
[21] = molecular target: Muscarinic acetylcholine receptor M2 (Homo sapiens) (UniProt P08172); assay: Inhibition of human muscarinic M2 receptor at 10 uM relative to control
Chain of Muscarinic acetylcholine receptor M2 (Homo sapiens) (P08172 whole entry): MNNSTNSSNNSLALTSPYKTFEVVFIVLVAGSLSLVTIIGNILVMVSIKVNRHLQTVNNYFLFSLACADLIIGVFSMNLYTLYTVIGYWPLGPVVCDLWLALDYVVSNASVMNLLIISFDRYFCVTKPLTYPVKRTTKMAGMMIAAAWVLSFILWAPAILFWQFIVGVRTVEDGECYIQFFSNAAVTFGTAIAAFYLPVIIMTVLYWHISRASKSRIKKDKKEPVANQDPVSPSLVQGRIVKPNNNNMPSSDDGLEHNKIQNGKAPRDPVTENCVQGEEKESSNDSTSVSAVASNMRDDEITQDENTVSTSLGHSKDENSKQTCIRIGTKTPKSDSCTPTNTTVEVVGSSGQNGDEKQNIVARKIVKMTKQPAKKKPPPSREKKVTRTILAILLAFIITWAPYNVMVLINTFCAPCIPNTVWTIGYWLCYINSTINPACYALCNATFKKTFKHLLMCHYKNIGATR

[22] = molecular target: Alpha-1B adrenergic receptor (Rattus norvegicus) (UniProt P15823); assay: Inhibition of rat adrenergic alpha 1B receptor at 10 uM relative to control
[23] = molecular target: Metabotropic glutamate receptor 2 (Rattus norvegicus, UniProt P31421); assay: Negative allosteric modulation of rat mGlu2 receptor expressed in HEK293 cells coexpressing Galpha15 assessed as inhibition of glutamate induced-calcium mobilization preincubated for 2.3 mins followed by glutamate addition measured for 1.9 mins by Fluo-4 AM dye based fluorescence assay; type: functional, cell-based
Chain of Metabotropic glutamate receptor 2 (P31421 whole entry, looked up): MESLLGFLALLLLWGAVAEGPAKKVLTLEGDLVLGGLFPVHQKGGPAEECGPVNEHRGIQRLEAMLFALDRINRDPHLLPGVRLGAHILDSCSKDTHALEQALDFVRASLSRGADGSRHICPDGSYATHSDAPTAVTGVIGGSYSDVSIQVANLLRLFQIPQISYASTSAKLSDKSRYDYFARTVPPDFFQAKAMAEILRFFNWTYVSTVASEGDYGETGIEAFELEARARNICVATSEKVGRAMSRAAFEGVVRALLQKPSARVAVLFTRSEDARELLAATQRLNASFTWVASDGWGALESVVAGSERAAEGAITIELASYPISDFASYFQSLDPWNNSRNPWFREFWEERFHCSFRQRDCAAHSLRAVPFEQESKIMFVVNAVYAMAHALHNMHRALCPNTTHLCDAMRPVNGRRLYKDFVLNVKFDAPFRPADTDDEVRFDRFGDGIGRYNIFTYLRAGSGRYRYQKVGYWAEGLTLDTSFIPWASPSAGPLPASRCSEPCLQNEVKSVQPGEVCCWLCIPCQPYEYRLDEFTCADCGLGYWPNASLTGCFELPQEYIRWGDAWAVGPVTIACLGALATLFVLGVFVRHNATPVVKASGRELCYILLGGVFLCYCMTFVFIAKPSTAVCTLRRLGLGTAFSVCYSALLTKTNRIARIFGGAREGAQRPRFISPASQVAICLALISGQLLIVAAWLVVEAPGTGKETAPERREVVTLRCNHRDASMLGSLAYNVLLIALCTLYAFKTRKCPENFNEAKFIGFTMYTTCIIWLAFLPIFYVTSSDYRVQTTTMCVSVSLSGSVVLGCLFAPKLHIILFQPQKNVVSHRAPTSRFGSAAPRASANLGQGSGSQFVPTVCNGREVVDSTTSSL

[24] = molecular target: 5-hydroxytryptamine receptor 2B (Homo sapiens) (UniProt P41595); assay: Inhibition of human 5-HT2B receptor at 10 uM relative to control
Chain of 5-hydroxytryptamine receptor 2B (Homo sapiens) (P41595 whole entry): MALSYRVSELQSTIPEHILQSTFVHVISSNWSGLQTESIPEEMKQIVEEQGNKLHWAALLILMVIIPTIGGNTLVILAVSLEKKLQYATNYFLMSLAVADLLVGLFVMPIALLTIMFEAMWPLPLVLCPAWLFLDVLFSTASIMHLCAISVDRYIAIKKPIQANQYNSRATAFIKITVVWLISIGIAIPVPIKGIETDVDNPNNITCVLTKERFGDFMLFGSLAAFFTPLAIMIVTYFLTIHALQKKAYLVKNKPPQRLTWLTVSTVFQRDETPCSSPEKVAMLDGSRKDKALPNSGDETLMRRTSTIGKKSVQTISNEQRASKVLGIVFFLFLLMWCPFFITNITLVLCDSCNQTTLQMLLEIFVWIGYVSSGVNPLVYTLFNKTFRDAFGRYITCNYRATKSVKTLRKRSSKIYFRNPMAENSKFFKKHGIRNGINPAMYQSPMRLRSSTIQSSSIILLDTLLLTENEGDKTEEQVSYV

[25] = molecular target: Substance-P receptor (Homo sapiens) (UniProt P25103); assay: Inhibition of human tachykinin NK1 receptor at 10 uM relative to control
[26] = Unbound brain to plasma concentration ratio in Harlan CD-1 mouse at 3 mg/kg, ip by LC/MS-MS analysis; type: ADME, organism-based; details: read-out: K(p,uu,brain)
[27] = species on record: Rattus norvegicus; assay: Inhibition of rat rolipram binding site at 10 uM relative to control
[28] = species on record: Rattus norvegicus; assay: Inhibition of rat central GABA-A receptor muscimol site at 10 uM relative to control
[29] = Fraction unbound in human plasma at 5 uM after 4 hrs by equilibrium dialysis based LC/MS/MS analysis; type: ADME, cell-free
[30] = molecular target: Cannabinoid receptor 1 (Homo sapiens) (UniProt P21554); assay: Inhibition of human cannabinoid CB1 receptor at 10 uM relative to control
[31] = species on record: Mus musculus; assay: Inhibition of mouse phorbol ester receptor at 10 uM relative to control
[32] = Fraction unbound in rat brain homogenate at 5 uM after 6 hrs by equilibrium dialysis based LC/MS/MS analysis; type: ADME, tissue-based
[33] = species on record: Mesocricetus auratus; assay: Inhibition of syrian hamster KATP at 10 uM relative to control
[34] = species on record: Oryctolagus cuniculus; assay: Inhibition of rabbit P2X receptor at 10 uM relative to control
[35] = molecular target: Glucocorticoid receptor (Homo sapiens) (UniProt P04150); assay: Inhibition of human glucocorticoid receptor at 10 uM relative to control
Chain of Glucocorticoid receptor (Homo sapiens) (P04150 whole entry): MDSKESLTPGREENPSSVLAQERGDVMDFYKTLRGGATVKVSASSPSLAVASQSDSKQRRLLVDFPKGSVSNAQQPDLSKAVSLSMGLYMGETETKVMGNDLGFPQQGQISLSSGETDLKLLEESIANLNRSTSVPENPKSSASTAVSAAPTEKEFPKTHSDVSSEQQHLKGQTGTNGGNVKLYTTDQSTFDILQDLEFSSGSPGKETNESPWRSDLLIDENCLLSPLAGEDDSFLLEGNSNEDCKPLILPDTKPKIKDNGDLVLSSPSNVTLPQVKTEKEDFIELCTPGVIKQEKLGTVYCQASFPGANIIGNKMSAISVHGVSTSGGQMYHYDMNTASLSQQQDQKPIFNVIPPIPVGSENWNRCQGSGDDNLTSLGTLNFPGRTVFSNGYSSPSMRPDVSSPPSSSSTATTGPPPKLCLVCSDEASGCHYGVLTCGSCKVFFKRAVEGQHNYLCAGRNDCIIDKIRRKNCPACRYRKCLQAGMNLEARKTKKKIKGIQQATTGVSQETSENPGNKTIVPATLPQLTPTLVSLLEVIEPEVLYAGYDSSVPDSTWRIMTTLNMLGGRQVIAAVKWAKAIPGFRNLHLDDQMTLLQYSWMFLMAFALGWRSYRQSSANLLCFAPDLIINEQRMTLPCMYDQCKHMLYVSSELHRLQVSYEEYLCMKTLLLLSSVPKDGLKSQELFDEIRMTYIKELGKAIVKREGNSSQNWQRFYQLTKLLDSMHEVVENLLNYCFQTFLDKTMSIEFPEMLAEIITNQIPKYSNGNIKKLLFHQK

[36] = molecular target: D(3) dopamine receptor (Homo sapiens) (UniProt P35462); assay: Inhibition of human dopamine D3 receptor at 10 uM relative to control
[37] = molecular target: Cytochrome P450 3A4 (Homo sapiens, UniProt P08684); assay: Inhibition of CYP3A4 in human liver microsomes using midazolam as substrate after 15 mins in presence of NADPH by LC/MS/MS analysis; type: ADME
[38] = molecular target: 5-hydroxytryptamine receptor 3A (Homo sapiens) (UniProt P46098); assay: Inhibition of human 5-HT3 receptor at 10 uM relative to control
Chain of 5-hydroxytryptamine receptor 3A (Homo sapiens) (P46098 whole entry): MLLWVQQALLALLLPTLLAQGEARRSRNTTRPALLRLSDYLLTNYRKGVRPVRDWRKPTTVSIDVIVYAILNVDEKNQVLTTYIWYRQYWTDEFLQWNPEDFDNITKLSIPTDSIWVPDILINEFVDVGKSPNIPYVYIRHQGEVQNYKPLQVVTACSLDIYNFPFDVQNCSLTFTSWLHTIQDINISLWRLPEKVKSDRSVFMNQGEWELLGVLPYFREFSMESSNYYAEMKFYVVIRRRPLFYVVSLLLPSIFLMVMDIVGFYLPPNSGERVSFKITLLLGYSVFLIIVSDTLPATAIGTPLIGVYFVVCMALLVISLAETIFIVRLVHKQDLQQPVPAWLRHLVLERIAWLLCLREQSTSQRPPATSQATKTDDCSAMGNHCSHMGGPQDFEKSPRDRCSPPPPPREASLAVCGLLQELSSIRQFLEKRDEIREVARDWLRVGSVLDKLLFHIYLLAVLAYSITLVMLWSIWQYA

[39] = molecular target: L-type calcium channel, benzodiazepine site (Rattus norvegicus, UniProt P22002+P27732+Q02485); assay: Inhibition of rat L-type calcium channel benzodiazepine site at 10 uM relative to control; type: protein assay
[40] = species on record: Rattus norvegicus; assay: Inhibition of rat sodium channel site 2 at 10 uM relative to control
[41] = molecular target: Adenosine receptor A3 (Homo sapiens) (UniProt P0DMS8); assay: Inhibition of human adenosine A3 receptor at 10 uM relative to control

With C[C@@H](COc1ccn(-c2ccc(F)cc2)c(=O)c1)Oc1ccccc1 the inhibition [1] was > 50%, the inhibition [2] was > 50% and the inhibition [3] was > 50%. For the same compound, the inhibition [4] was “inactive”, the inhibition [5] was “inactive” and the inhibition [6] was > 50%. The inhibition [7] was > 50%, the inhibition [8] was > 50% and the inhibition [9] was > 50%. The Kp [10] was 1.2, the inhibition [11] was > 50% and the IC50 [12] was > 30 µM. The inhibition [13] was > 50%, the inhibition [14] was > 50% and the minimal effective dose [15] was 3 mg/kg. For the same compound, the inhibition [16] was > 50%, the inhibition [17] was > 50% and the inhibition [18] was > 50%. For the same compound, the inhibition at 10 µM [19] was > 50%, the inhibition [20] was > 50% and the inhibition [21] was > 50%. The inhibition [22] was > 50%, the IC50 [23] was > 30 µM and the inhibition [24] was > 50%. The inhibition [25] was > 50%, the Kp uu [26] was 0.27 and the inhibition [27] was > 50%. For the same compound, the inhibition [28] was > 50%, the fraction unbound at 4 h, 5 µM [29] was 0.18 and the inhibition [30] was > 50%. For the same compound, the inhibition [31] was > 50%, the fraction unbound at 6 h, 5 µM [32] was 0.06 and the inhibition [33] was > 50%. For the same compound, the inhibition [34] was > 50%, the inhibition [35] was > 50% and the inhibition [36] was > 50%. The IC50 [37] was > 30 µM, the inhibition [38] was > 50% and the inhibition at 10 µM [39] was > 50%. For the same compound, the inhibition [40] was > 50% and the inhibition [41] was > 50%.
